# Source: patent US8598126B2, “Peptides for inhibiting the HPV-E6 oncoprotein” (priority 2008, dated 2013)
# How the values were obtained:
# [1] = test system: HPV16-positive SiHa cells; assay: Clonogenic survival assay, SiHa; assay type: cell-based; conditions: stable expression
# Excerpt: HPV16-positive cell lines SiHa and MRI-H-186, HPV18-positive HeLa cells and the HPV-negative osteosarcoma cell line U-2 OS were transfected with peptide expression vectors which allowed for hygromcyin B selection (pCEP4, Invitrogen). After 6-7 days of selection, cells were fixed and stained with formaldehyde-crystal violet solution.
# [2] = test system: HPV16-positive CaSki cells; assay: Clonogenic survival assay, CaSki; assay type: cell-based; conditions: stable expression
# HPV16 E6 = HPV16 E6 (Human papillomavirus type 16, UniProt P03126); conditions: FIG. 1, solubility-optimized versions and mutants
# Sequence of HPV16 E6 (P03126 whole entry): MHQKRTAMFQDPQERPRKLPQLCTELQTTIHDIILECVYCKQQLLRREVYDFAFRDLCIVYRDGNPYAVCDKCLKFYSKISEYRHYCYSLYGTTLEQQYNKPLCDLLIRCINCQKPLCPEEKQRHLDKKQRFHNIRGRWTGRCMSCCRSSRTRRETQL
Substance,growth in clonogenic survival assay [1],growth in clonogenic survival assay [2],activity (binding to HPV16 E6) of pep 11 variants and mutants (HPV16 E6)
pep11**m (EYNSNCSCIACIGLI; E6 pep11*),showed no effect,showed no effect,inactive
E6AP peptide: E6 binding consensus motif within E6AP (SEQ ID NO: 9) (KEKEEYNSNSSSIASIGLI; E6 pep11*) [reference compound],showed no effect,showed no effect,–
